Experimental data taken from patent US6927039B2, “Enzymatic process” (Nanobiodesign Limited, priority 2000, dated 2005).
Like-named read-outs stand apart in the source and are kept apart here.

Key:
cytochrome P450 BM3 [1] = target: T1, cytochrome P450 BM3 (Priestia megaterium, UniProt P14779); assay: Substrate binding by spectral titration of the haem high spin band, purified enzyme (in vitro); parameters: expressed in transfected cells; host or cells: E. coli BL21(DE3) transformed with pT7Bm3Z; species or system Bacillus megaterium
T1 sequence (P14779 1-1049): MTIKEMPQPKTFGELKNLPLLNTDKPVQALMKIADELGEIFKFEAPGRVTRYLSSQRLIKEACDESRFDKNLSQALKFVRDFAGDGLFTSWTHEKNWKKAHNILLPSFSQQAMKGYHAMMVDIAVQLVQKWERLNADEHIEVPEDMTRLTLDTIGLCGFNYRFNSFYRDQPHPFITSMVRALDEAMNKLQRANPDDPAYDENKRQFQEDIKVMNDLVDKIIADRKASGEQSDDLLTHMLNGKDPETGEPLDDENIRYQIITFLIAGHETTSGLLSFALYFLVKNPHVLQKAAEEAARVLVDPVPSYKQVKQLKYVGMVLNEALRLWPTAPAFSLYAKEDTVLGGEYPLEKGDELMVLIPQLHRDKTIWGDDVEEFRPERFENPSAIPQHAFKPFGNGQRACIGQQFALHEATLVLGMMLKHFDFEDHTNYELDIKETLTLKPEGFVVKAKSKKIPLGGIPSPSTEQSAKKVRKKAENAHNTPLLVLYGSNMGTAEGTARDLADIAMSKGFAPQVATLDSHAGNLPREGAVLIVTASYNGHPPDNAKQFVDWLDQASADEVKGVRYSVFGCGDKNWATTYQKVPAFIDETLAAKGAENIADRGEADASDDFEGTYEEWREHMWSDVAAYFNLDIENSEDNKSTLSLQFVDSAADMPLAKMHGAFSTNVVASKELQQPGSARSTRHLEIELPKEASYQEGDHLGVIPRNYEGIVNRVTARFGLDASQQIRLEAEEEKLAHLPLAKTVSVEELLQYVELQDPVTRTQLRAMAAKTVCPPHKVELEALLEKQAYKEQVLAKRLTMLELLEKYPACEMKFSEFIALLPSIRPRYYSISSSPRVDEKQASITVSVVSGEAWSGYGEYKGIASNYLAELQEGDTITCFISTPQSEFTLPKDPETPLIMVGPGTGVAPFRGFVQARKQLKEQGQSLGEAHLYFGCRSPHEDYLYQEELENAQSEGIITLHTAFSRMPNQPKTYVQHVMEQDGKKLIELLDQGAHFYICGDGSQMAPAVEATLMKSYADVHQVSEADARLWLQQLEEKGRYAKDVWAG
Description: Substrate Binding and NADPH Consumption Assays. Substrate binding was followed in a Hewlett-Packard 8452A diode array spectrophotometer, equipped with a Hewlett-Packard peltier temperature controller 89090 by monitoring the increase in the high spin band of the haem at 390 nm, upon titration with different substrates. The dissociation constant Kd was calculated by fitting the obtained data to the equation [ES]=((ΔA390-ΔA421)max·[S]free)/(Kd+[S]free) where [ES]=(ΔA390-ΔA421)/(ΔA392-ΔA421)max·[P450 BM3] and [S]free=[S]added−[ES].
(§1) NADPH consumption was followed at 340 nm using a Δε340=6.22 mM^−1·cm^−1. Both assays were performed at 20° C. using P450 BM3 in 100 mM potassium phosphate buffer, pH 8.0. Reaction was initiated by addition to the substrate bound enzyme of NADPH to a final concentration of 130-150 μM. In the kinetics assay the rate constant kcat was calculated from the linear part of the decrease in A340 with time, which lasted at least for the first 4 sec. The enzyme concentration typically varied between 0.4 and 0.8 μM in the binding assay and between 8 and 25 nM in the catalytic assay. Substrate stock solutions were freshly prepared the day of the assay. Fatty acid stock solutions were in 50 mM potassium carbonate, SDS was easily dissolved in water, while TCE stock solutions were prepared in ethanol. If appropriate, stocks of candidate agents may be prepared in, for example, N,N-dimethylformamide just before the assay. […] The confidence interval for Kd given in the results section is the mean±the standard deviation of at least four measurements, as calculated using the software Kaleidagraph. Similarly kcat was calculated by fitting data points to the Michaelis-Menten equation. Each data point is the mean of at least four measurements.

cytochrome P450 BM3 [2] = target: T1, cytochrome P450 BM3; assay: Alkali assay of NADP+ production in whole E.coli BL21(DE3) cells expressing P450 BM3 (in vivo assay); conditions: for R (Remark): substrate or no-interaction with P450 BM3; for Vmax: alkali assay; for Vmax / time at which the plateau of the A360 alkali product curve is reached: NADPH 1.5 mM; for time at which the plateau of the A360 alkali product curve is reached: substrate concentration about 0.8 mM; for substrate concentration above which the linear region of NADPH oxidation was found in the first 25 min: ~0-25 min after NADPH addition
cytochrome P450 BM3 [3] = target: T1, cytochrome P450 BM3; assay: Hydrogen peroxide determination (uncoupling) by HRP/ABTS assay, purified enzyme; assay type: biochemical, Bacillus megaterium; parameters: expressed in transfected cells; host or cells: E. coli BL21(DE3) transformed with pT7Bm3Z; conditions: 150 μM NADPH
Description: Hydrogen Peroxide Determination. Uncoupled reactions were determined by measuring the production of hydrogen peroxide during substrate turnover using the horseradish peroxidase (HRP)/2′2-Azino-di(3-ethyl-benzathiazoline-6-sulphonic acid) (ABTS) assay as described by Childs and Bardsley (31). The extinction coefficient at 414 nm of the radical cation of ABTS was calculated to 32.95 mM^−1 cm^−1, in accordance with the published value. The assay mixture composition was essentially similar to that utilised during the substrate-dependent NADPH consumption assay (20-30 nM P450 BM3 in 100 mM potassium phosphate buffer pH 8.0, 150 μM NADPH, and at least 1.7 times higher substrate concentration relative to NADPH concentration). When all NADPH was consumed (as judged from the disappearance of the 340 nm peak) the hydrogen peroxide produced was measured. Uncoupling in whole cells was measured following essentially the same assay in whole cells in 100 mM potassium phosphate buffer pH 8.0 incubated with substrate and NADPH as in the alkali method.

E.coli BL21(DE3) cells = assay: Toxicity of substrate to the whole cells used in the assay; assay type: cell-based
Description: When the initial rate of AA, LA, and SDS oxidation was plotted against substrate concentration a Michaelis-Menten-type curve was obtained as shown in FIG. 6. […] The kinetic parameters determined following the substrate-dependent NADPH oxidation with time in the whole-cell assay are given in Table 1. For all the three substrates the extent of uncoupling of P450 BM3 from substrate hydroxylation was also determined in a whole-cell assay. This was essentially an adaptation of the hydrogen peroxide quantification method of HRP with ABTS described for the experiments carried out on purified enzyme.
The potential lethal effect that high concentrations of substrate may have on whole cells (as in the case of arachidonic acid at concentrations higher than 170 μM, FIG. 7A.) can be overcome without loss of sensitivity by successive small additions of substrate. The increase of the A360 signal with subsequent additions of SDS to whole cells expressing P450 BM3 is reported in FIG. 8, where it can be observed how the increase in the absorbance becomes limited by the NADPH concentration. At 1.5 h after NADPH addition, when SDS is supplied periodically to the cells an increase of about 45% in the NADP^+ production is seen, which should correspond to a ratio of sample A360 signal/blank signal of about 30. […]

cytochrome P450 BM3 [4] = target: T1, cytochrome P450 BM3; assay: Substrate-dependent NADPH consumption assay at 340 nm, purified enzyme (in vitro); assay type: biochemical, Bacillus megaterium; parameters: expressed in transfected cells; host or cells: E. coli BL21(DE3) transformed with pT7Bm3Z; conditions: NADPH 130-150 μM, 20° C., pH 8.0
Description: as §1

[5] = 20° C., 100 mM potassium phosphate buffer pH 8.0, read-out: Kd

Row | SMILES | Kd (cytochrome P450 BM3 [1]; printed as an order-of-magnitude range in M, read-out: Kd) [µM] | R (Remark) (cytochrome P450 BM3 [2]) | % H2O2 (cytochrome P450 BM3 [3]) [%] | toxicity to E.coli BL21(DE3) cells (E.coli BL21(DE3) cells) | concentration above which the substrate has a lethal effect on whole cells (E.coli BL21(DE3) cells; E.coli BL21(DE3) cells expressing P450 BM3) | Kd (cytochrome P450 BM3 [1]; [5]) [µM] | Vmax (cytochrome P450 BM3 [2]; whole cells) [nM NADP^+/min] | time at which the plateau of the A360 alkali product curve is reached (cytochrome P450 BM3 [2]; whole cells) [h] | substrate concentration above which the linear region of NADPH oxidation was found in the first 25 min (cytochrome P450 BM3 [2]; whole cells) | ratio of sample A360 signal/blank signal (cytochrome P450 BM3 [2]; whole cells, SDS supplied periodically, 1.5 h after NADPH addition) | Kd (cytochrome P450 BM3 [1]; 20° C., 100 mM potassium phosphate buffer pH 8.0) | KM (cytochrome P450 BM3 [4]) | kcat (cytochrome P450 BM3 [4])
1 | CCCCC/C=C\C/C=C\C/C=C\C/C=C\CCCC(=O)O [AA, arachidonic acid] | ~0.1 | S | 0.11 | relatively high toxicity | higher than 170 μM | – | – | – | – | – | – | – | –
2 | CCCCCCCCCCCC(=O)O [LA, lauric acid] | – | S | 0.66 | – | – | 135 ± 38.2 | 10.26 ± 0.87 | 7 | higher than 200 μM | – | – | – | –
3 | CCCCCCCCCCCCOS(=O)(=O)[O-].[Na+] [SDS, sodium dodecyl sulphate] | – | S | 0.63 | – | – | 11.5 ± 3.7 | 18.19 ± 1.12 | 3.5 | higher than 300 μM | about 30 | – | – | –
4 | ClC(Cl)C(Cl)Cl [TCE, 1,1,2,2-tetrachloroethane] | – | S | 0 | – | – | 4010 ± 830 | – | – | – | – | – | – | –
5 | CCCCCC [n-hexane] | – | N | – | – | – | – | – | – | – | – | n.o. | n.o. | n.o.
